Assay: xn = mol fraction of the nth substance listed
Settings: 273.15 K, Fluid (supercritical or subcritical phases), x1 = 0.97; for mass density: Vibrating tube method; for speed of sound: Frequency=5 MHz, Pulse-echo method

O=C=O [carbon dioxide] + CO
Settings	mass density [kg/m3]	speed of sound [m/s]
14050 kPa	992.7	–
14075 kPa	992.85	–
14100 kPa	992.93	–
14125 kPa	993.06	–
14150 kPa	993.17	–
14175 kPa	993.26	–
14200 kPa	993.38	–
14225 kPa	993.5	–
14250 kPa	993.58	–
14275 kPa	993.7	–
14300 kPa	993.82	–
14325 kPa	993.9	–
14350 kPa	994	–
14375 kPa	994.12	–
14400 kPa	994.23	–
14425 kPa	994.35	–
14450 kPa	994.42	–
14475 kPa	994.54	–
14500 kPa	994.65	–
14525 kPa	994.75	–
14550 kPa	994.85	–
14575 kPa	994.96	–
14600 kPa	995.07	–
14625 kPa	995.18	–
14650 kPa	995.29	–
14675 kPa	995.37	–
14700 kPa	995.5	–
14725 kPa	995.62	–
14750 kPa	995.7	–
14775 kPa	995.81	–
14800 kPa	995.94	–
14825 kPa	996.02	–
14850 kPa	996.12	–
14875 kPa	996.27	–
14900 kPa	996.34	688.9
14925 kPa	996.43	–
14950 kPa	996.51	–
14975 kPa	996.65	–
15000 kPa	996.75	–
15025 kPa	996.84	–
15050 kPa	996.94	–
15075 kPa	997.08	–
15100 kPa	997.16	–
15125 kPa	997.24	–
15150 kPa	997.37	–
15175 kPa	997.49	–
15200 kPa	997.57	–
15225 kPa	997.66	–
15250 kPa	997.8	–
15275 kPa	997.89	–
15300 kPa	997.98	–
15325 kPa	998.14	–
15350 kPa	998.19	–
15375 kPa	998.3	–
15400 kPa	998.38	–
15425 kPa	998.5	–
15450 kPa	998.63	–
15475 kPa	998.71	–
15500 kPa	998.79	–
15525 kPa	998.89	–
15550 kPa	999.03	–
15575 kPa	999.11	–
15600 kPa	999.22	–
15625 kPa	999.34	–
15650 kPa	999.41	–
15675 kPa	999.52	–
15700 kPa	999.63	–
15725 kPa	999.76	–
15750 kPa	999.85	–
15775 kPa	999.93	–
15800 kPa	1000.03	–
15825 kPa	1000.09	–
15850 kPa	1000.25	–
15875 kPa	1000.33	–
15900 kPa	1000.44	–
15925 kPa	1000.5	–
15950 kPa	1000.59	–
15975 kPa	1000.74	–
16000 kPa	1000.82	–
16025 kPa	1000.92	–
16050 kPa	1001.03	–
16075 kPa	1001.14	–
16100 kPa	1001.23	–
16125 kPa	1001.34	–
16150 kPa	1001.44	–
16175 kPa	1001.55	–
16200 kPa	1001.64	–
16225 kPa	1001.73	–
16250 kPa	1001.84	–
16275 kPa	1001.95	–
16300 kPa	1002.05	–
16325 kPa	1002.16	–
16350 kPa	1002.26	–
16375 kPa	1002.35	–
16400 kPa	1002.44	–
16425 kPa	1002.55	–
16450 kPa	1002.64	–
16475 kPa	1002.73	–
16500 kPa	1002.82	–
16525 kPa	1002.92	–
16550 kPa	1003.07	–
16575 kPa	1003.15	–
16600 kPa	1003.23	–
16625 kPa	1003.31	–
16650 kPa	1003.43	–
16675 kPa	1003.55	–
16700 kPa	1003.63	–
16725 kPa	1003.75	–
16750 kPa	1003.86	–
16775 kPa	1003.93	–
16800 kPa	1004.01	–
16825 kPa	1004.09	–
16850 kPa	1004.25	–
16875 kPa	1004.31	–
16900 kPa	1004.4	–
16925 kPa	1004.53	–
16950 kPa	1004.6	–
16975 kPa	1004.73	–
17000 kPa	1004.82	–
17025 kPa	1004.89	–
17050 kPa	1005.04	–
17075 kPa	1005.11	–
17100 kPa	1005.21	–
17125 kPa	1005.3	–
17150 kPa	1005.42	–
17175 kPa	1005.49	–
17200 kPa	1005.63	–
17225 kPa	1005.7	–
17250 kPa	1005.78	–
17275 kPa	1005.9	–
17300 kPa	1006.03	–
17325 kPa	1006.1	–
17350 kPa	1006.19	–
17375 kPa	1006.3	–
17400 kPa	1006.36	–
17425 kPa	1006.5	–
17450 kPa	1006.55	–
17475 kPa	1006.68	–
17500 kPa	1006.76	–
17525 kPa	1006.86	–
17550 kPa	1006.92	–
17575 kPa	1007.06	–
17600 kPa	1007.11	–
17625 kPa	1007.24	–
17650 kPa	1007.37	–
17675 kPa	1007.42	–
17700 kPa	1007.56	–
17725 kPa	1007.61	–
17750 kPa	1007.74	–
17775 kPa	1007.82	–
17800 kPa	1007.92	–
17825 kPa	1008.05	–
17850 kPa	1008.1	–
17875 kPa	1008.22	–
17900 kPa	1008.28	–
17925 kPa	1008.41	–
17950 kPa	1008.47	–
17975 kPa	1008.58	–
18000 kPa	1008.63	–
18025 kPa	1008.76	–
18050 kPa	1008.81	–
18075 kPa	1008.93	–
18100 kPa	1009.05	–
18125 kPa	1009.17	–
18150 kPa	1009.21	–
18175 kPa	1009.33	–
18200 kPa	1009.44	–
18225 kPa	1009.49	–
18250 kPa	1009.61	–
18275 kPa	1009.68	–
18300 kPa	1009.76	–
18325 kPa	1009.88	–
18350 kPa	1009.93	–
18375 kPa	1010.03	–
18400 kPa	1010.15	–
18425 kPa	1010.26	–
18450 kPa	1010.33	–
18475 kPa	1010.41	–
18500 kPa	1010.52	–
18525 kPa	1010.58	–
18550 kPa	1010.7	–
18575 kPa	1010.82	–
18600 kPa	1010.88	–
18625 kPa	1010.99	–
18650 kPa	1011.1	–
18675 kPa	1011.15	–
18700 kPa	1011.25	–
18725 kPa	1011.35	–
18750 kPa	1011.46	–
18775 kPa	1011.49	–
18800 kPa	1011.59	–
18825 kPa	1011.7	–
18850 kPa	1011.81	–
18875 kPa	1011.88	–
18900 kPa	1011.94	–
18925 kPa	1012.05	–
18950 kPa	1012.15	–
18975 kPa	1012.26	–
19000 kPa	1012.37	–
19025 kPa	1012.45	–
19050 kPa	1012.49	–
19075 kPa	1012.6	–
19100 kPa	1012.7	–
19125 kPa	1012.77	–
19150 kPa	1012.83	–
19175 kPa	1012.93	–
19200 kPa	1013.04	–
19225 kPa	1013.15	–
19250 kPa	1013.25	–
19275 kPa	1013.27	–
19300 kPa	1013.37	–
19325 kPa	1013.48	–
19350 kPa	1013.58	–
19375 kPa	1013.61	–
19400 kPa	1013.72	–
19425 kPa	1013.82	–
19450 kPa	1013.91	–
19475 kPa	1013.95	–
19500 kPa	1014.05	–
19525 kPa	1014.15	–
19550 kPa	1014.24	–
19575 kPa	1014.34	–
19600 kPa	1014.44	–
19625 kPa	1014.47	–
19650 kPa	1014.56	–
19675 kPa	1014.66	–
19700 kPa	1014.76	–
19725 kPa	1014.86	–
19750 kPa	1014.88	–
19775 kPa	1014.98	–
19800 kPa	1015.08	–
19825 kPa	1015.19	–
19850 kPa	1015.29	–
19875 kPa	1015.31	–
19900 kPa	1015.41	–
19910 kPa	–	735.5
19925 kPa	1015.5	–
19950 kPa	1015.6	–
19975 kPa	1015.7	–
20000 kPa	1015.77	–
24940 kPa	–	776.2
29980 kPa	–	812.6
35030 kPa	–	845.6

Reference: the NIST ThermoML archive (doi:10.1016/j.jct.2016.03.026)
